Measurements taken from patent publication US9969770B2, “Proline compounds as Granzyme B inhibitors” (viDA Therapeutics Inc., priority 2014, dated 2018).

Molecular target: GzmB (Homo sapiens, UniProt P10144)
Assay: Inhibition of fibronectin cleavage by GzmB
Type: biochemical
Details: 20 nM granzyme B, 30° C.; for inhibition at 0.62 µM: 0.62 uM inhibitor, read-out: Percent Inhibition at Inhibitor Concentration 0.62 uM; for inhibition at 5.56 µM: 5.56 uM inhibitor, read-out: Percent Inhibition at Inhibitor Concentration 5.56 uM; for inhibition at 50 µM: 50 uM inhibitor, read-out: Percent Inhibition at Inhibitor Concentration 50 uM
Experimental: Black, 96 well high-binding assay plates (Griener Bio-one) were treated overnight at 4° C. with 40 uL of 8 ug/mL Hilyte Fluor 488 labeled Fibronectin (Cytoskeleton, Inc). After fibronectin coating, plates were washed 3 times in buffer (20 mM Tris-HCl, pH 7.4, 20 mM NaCl) then once with granzyme B assay buffer (50 mM HEPES, pH 7.5, 0.1% CHAPS). After washing, 50 uL of granzyme B assay buffer was added to each fibronectin-coated well. In a separate non-binding 96 well assay plate 5 uL of 20× inhibitor serial dilution stocks were added to 45 uL of 2.22×GzmB mix to establish inhibition (enzyme/inhibitor mixes were all prepared in granzyme B assay buffer and were incubated first at room temperature for 20 minutes, then at 30° C. for another 10 minutes). After incubation, 50 uL of this 2× enzyme/inhibitor mix was added to the corresponding coated well to initiate fibronectin cleavage (20 nM final granzyme B concentration, 8-point inhibitor dilution series starting at 50 uM). The assay was conducted at 30° C. in the TECAN plate reader (TECAN INFINITE® M1000 Pro), which was programmed to monitor the kinetic fluorescence polarization signal (filter set Ex/Em 470 nm/527 nm) with readings taken every minute, for 1 hour. Proteolytic activity was evaluated as the rate of fluorescence enhancement in the parallel emission over the linear range of the reaction. % Inhibition values were calculated from assay controls and the resulting date is shown in Table 6.

Chain of GzmB (P10144 21-247): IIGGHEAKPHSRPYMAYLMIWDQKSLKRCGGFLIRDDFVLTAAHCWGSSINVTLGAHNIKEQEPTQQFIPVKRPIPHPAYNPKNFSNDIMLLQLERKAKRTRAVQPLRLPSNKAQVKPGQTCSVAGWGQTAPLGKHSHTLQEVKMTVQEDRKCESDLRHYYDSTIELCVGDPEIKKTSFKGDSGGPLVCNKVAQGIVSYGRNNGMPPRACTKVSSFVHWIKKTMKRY

| Structure (SMILES) | inhibition at 0.62 µM | inhibition at 5.56 µM | inhibition at 50 µM |
| --- | --- | --- | --- |
| CC[C@H](C)[C@H](NC(=O)Cc1ccccc1)C(=O)NCC(=O)N1C[C@H](C2CCCCC2)C[C@H]1C(=O)NCc1nn[nH]n1 [Compound C2, (2S,4S)—N-((2H-tetrazol-5-yl)methyl)-4-cyclohexyl-1-(2-((2S,3S)-3-methyl-2-(2-phenylacetamido)pentanamido)acetyl)pyrrolidine-2-carboxamide] | 40% | 76% | 84% |
| O=C(O)CCC(=O)N[C@H](C(=O)NCC(=O)N1C[C@H](C2CCCCC2)C[C@H]1C(=O)NCc1nn[nH]n1)C1CCCC1 [Compound C5, 4-(((S)-2-((2-((2S,4S)-2-(((2H-tetrazol-5-yl)methyl)carbamoyl)-4-cyclohexylpyrrolidin-1-yl)-2-oxoethyl)amino)-1-cyclopentyl-2-oxoethyl)amino)-4-oxobutanoic acid] | 35% | 70% | 86% |
| CC[C@H](C)[C@H](NC(=O)CCC(=O)O)C(=O)NCC(=O)N1C[C@H](Sc2ccccc2)C[C@H]1C(=O)NCc1nn[nH]n1 [Compound C13, 4-(((2S,3S)-1-((2-((2S,4R)-2-(((2H-tetrazol-5-yl)methyl)carbamoyl)-4-(phenylthio)pyrrolidin-1-yl)-2-oxoethyl)amino)-3-methyl-1-oxopentan-2-yl)amino)-4-oxobutanoic acid] | 28% | 58% | 81% |
